Experimental data: publication PMC9878345 (Frontiers in Chemistry, 2023)
Values joined by “and” are separate entries in the source; they are usually repeats but may differ in a detail not shown here. Identical values can stand only once. Like-named read-outs stand apart in the source and are kept apart here.

Key:
SARS-CoV-2 PLpro [1] = target: T1, SARS-CoV-2 PLpro (Severe acute respiratory syndrome coronavirus 2, UniProt P0DTD1); experiment: biochemical
Vero-E6 cells = experiment: Cell viability assay (PrestoBlue); format: cell-based, African green monkey; conditions: for cytotoxicity (in words): 24, 48, 72 h at 50, 100, 200 µM; for cytotoxicity: at the tested doses and time points
Method: The cytotoxic effect of selected phytochemicals were carried out with Vero-E6 cells using PrestoBlue™ Cell Viability kit as described earlier ([Lewis et al., 2022]). Briefly, Vero-E6 cells (20,000 cells) were seeded overnight in 96 well plates. Then, 100 µL of complete media (EMEM+10% FBS+1%Pen/Strep) was added to refresh the cells along with 50, 100, and 200 µM selected phytochemicals, and incubation was continued for 24, 48, and 72 hs at 37°C respectively. Cytotoxicity detection regent (PrestoBlue solution) was added and incubated for additional 1h at 37°C. The absorbance was taken at 530/25 excitation and 590/35 nm emission using Bio-Tek Synergy HT fluorescent plate reader.

SARS-CoV-2 PLpro [2] = target: T1, SARS-CoV-2 PLpro; experiment: biochemical; format: biochemical; conditions: for inhibition at 50 µM / inhibition at 100 µM / inhibition at 200 µM: read-out: inhibition of PLpro proteolytic activity; for inhibition activity in SARS-CoV-2 PLpro enzymatic activity: concentration not stated; for inhibitory activity towards PLpro proteolytic activity (in words): at the tested concentrations (50, 100, 200 μM); for IC50 / IC50, PLpro proteolytic activity (Figure 5) / IC50 towards PLpro proteolytic activity: dose-dependent study; for IC50 / IC50 towards PLpro proteolytic activity: 0–100 µM, non-linear regression
[3] = read-out: IC50 towards PLpro proteolytic activity
[4] = read-out: inhibition of PLpro DUB activity

For `O=C(O[C@@H]1Cc2c(O)cc(O)cc2O[C@@H]1c1cc(O)c(O)c(O)c1)c1cc(O)c(O)c(O)c1` [EGCG, epigallocatechin gallate], the inhibition at 50 µM (SARS-CoV-2 PLpro [1]; 50 μM, vs DMSO control, read-out: inhibition of PLpro DUB activity) was 70%, the inhibition at 100 µM (SARS-CoV-2 PLpro [1]; 100 μM, vs DMSO control, read-out: inhibition of PLpro DUB activity) was 90% and the inhibition at 200 µM (SARS-CoV-2 PLpro [1]; 200 μM, vs DMSO control, read-out: inhibition of PLpro DUB activity) was 95%. For the same molecule, the “cytotoxicity (in words)” value (Vero-E6 cells) was “not c ytotoxic”, the inhibition at 50 µM (SARS-CoV-2 PLpro [2]; 50 μM, vs DMSO control) was 65% and the inhibition at 100 µM (SARS-CoV-2 PLpro [2]; 100 μM, vs DMSO control) was 81%. The inhibition at 200 µM (SARS-CoV-2 PLpro [2]; 200 μM, vs DMSO control) was 97% and the “inhibition activity in SARS-CoV-2 PLpro enzymatic activity” value (SARS-CoV-2 PLpro [2]) was “more than 50%”.

In the case of `C[C@@H]1CC[C@H]2[C@@H](C)C(=O)O[C@@H]3O[C@@]4(C)CC[C@@H]1[C@]32OO4` [artemisinin, reference compound], the “inhibitory activity towards PLpro proteolytic activity (in words)” value (SARS-CoV-2 PLpro [2]) is reported as “did not show inhibitory activity”.

With `C=C(C)[C@@H]1CC[C@]2(C(=O)O)CC[C@]3(C)[C@H](CC[C@@H]4[C@@]5(C)CC[C@H](O)C(C)(C)[C@@H]5CC[C@]43C)[C@@H]12` [betulinic acid] the “inhibitory activity towards PLpro proteolytic activity (in words)” value (SARS-CoV-2 PLpro [2]) was “did not show inhibitory activity”.

`O.Oc1cc(O)c2c(c1)O[C@H](c1ccc(O)c(O)c1)[C@@H](O)C2` [catechin] was tested, and the “inhibition of PLpro DUB activity” value (SARS-CoV-2 PLpro [1]; 50 μM, vs DMSO control) was 30%, the “inhibition of PLpro DUB activity” value (SARS-CoV-2 PLpro [1]; 100 μM, vs DMSO control) was 40% and the “inhibition of PLpro DUB activity” value (SARS-CoV-2 PLpro [1]; 200 μM, vs DMSO control) was 50%. For the same molecule, the “inhibition of PLpro proteolytic activity” value (SARS-CoV-2 PLpro [2]; 50 μM, vs DMSO control) was 25%, the “inhibition of PLpro proteolytic activity” value (SARS-CoV-2 PLpro [2]; 100 μM, vs DMSO control) was 44% and the “inhibition of PLpro proteolytic activity” value (SARS-CoV-2 PLpro [2]; 200 μM, vs DMSO control) was 64%. The IC50 (SARS-CoV-2 PLpro [2]; [3]) was 14.2 µM.

With `CN1Cc2c(ccc3c2OCO3)[C@@H]2[C@H]1c1cc3c(cc1C[C@@H]2O)OCO3` [chelidonine] the “inhibitory activity towards PLpro proteolytic activity (in words)” value (SARS-CoV-2 PLpro [2]) was “only colchicine out of all the tested alkaloids”.

`O=c1c(-c2ccc(O)cc2)coc2cc(O)ccc12` [daidzein] was tested, and the “inhibitory activity towards PLpro proteolytic activity (in words)” value (SARS-CoV-2 PLpro [2]) was “none of the tested isoflavone compounds such as daidzein, daidzin, genistein, genistin, and isoflorentin demonstrated an inhibitory effect”.

In the case of `O=c1c(-c2ccc(O)cc2)coc2cc(O[C@@H]3O[C@H](CO)[C@@H](O)[C@H](O)[C@H]3O)ccc12` [daidzin], the “inhibitory activity towards PLpro proteolytic activity (in words)” value (SARS-CoV-2 PLpro [2]) is reported as “none of the tested isoflavone compounds such as daidzein, daidzin, genistein, genistin, and isoflorentin demonstrated an inhibitory effect”.

`C=CCSSCC=C` [diallyl disulfide] was tested, and the “inhibitory activity towards PLpro proteolytic activity (in words)” value (SARS-CoV-2 PLpro [2]) was “did not show inhibitory activity”.

With `C=CCSSSCC=C` [diallyl trisulfide] the “inhibitory activity towards PLpro proteolytic activity (in words)” value (SARS-CoV-2 PLpro [2]) was “did not show inhibitory activity”.

In the case of `O=c1c(-c2ccc(O)cc2)coc2cc(O)cc(O)c12` [genistein], the “inhibitory activity towards PLpro proteolytic activity (in words)” value (SARS-CoV-2 PLpro [2]) is reported as “none of the tested isoflavone compounds such as daidzein, daidzin, genistein, genistin, and isoflorentin demonstrated an inhibitory effect”.

In the case of `O=c1c(-c2ccc(O)cc2)coc2cc(O[C@@H]3O[C@H](CO)[C@@H](O)[C@H](O)[C@H]3O)cc(O)c12` [genistin], the “inhibitory activity towards PLpro proteolytic activity (in words)” value (SARS-CoV-2 PLpro [2]) is reported as “none of the tested isoflavone compounds such as daidzein, daidzin, genistein, genistin, and isoflorentin demonstrated an inhibitory effect”.

With `CC1(C)[C@@H](O[C@H]2O[C@H](C(=O)O)[C@@H](O)[C@H](O)[C@H]2O[C@@H]2O[C@H](C(=O)O)[C@@H](O)[C@H](O)[C@H]2O)CC[C@]2(C)[C@H]3C(=O)C=C4[C@@H]5C[C@@](C)(C(=O)O)CC[C@]5(C)CC[C@@]4(C)[C@]3(C)CC[C@@H]12` [glycyrrhizic acid] the “inhibitory activity towards PLpro proteolytic activity (in words)” value (SARS-CoV-2 PLpro [2]) was “did not show inhibitory activity”.

For `COc1cc(-c2coc3cc4c(c(OC)c3c2=O)OCO4)cc(OC)c1OC` [isoflorentin], the “inhibitory activity towards PLpro proteolytic activity (in words)” value (SARS-CoV-2 PLpro [2]) was “none of the tested isoflavone compounds such as daidzein, daidzin, genistein, genistin, and isoflorentin demonstrated an inhibitory effect”.

With `O[C@H]1[C@H]2c3cc4c(cc3CN3CCC(=C[C@@H]1O)[C@H]23)OCO4` [lycorine] the “inhibitory activity towards PLpro proteolytic activity (in words)” value (SARS-CoV-2 PLpro [2]) was “only colchicine out of all the tested alkaloids”.

For `O=c1c2cc(O)c(O)cc2oc2cc(O)c([C@@H]3O[C@H](CO)[C@@H](O)[C@H](O)[C@H]3O)c(O)c12` [mangiferin, 2-β-D-glucopyranosyl-1,3,6,7-tetrahydroxy-9H-xanthan-9-one], the IC50 (SARS-CoV-2 PLpro [1]) was 104 µM, the inhibition at 200 µM (SARS-CoV-2 PLpro [1]; [4]) was 10 to 30% and the “cytotoxicity (in words)” value (Vero-E6 cells) was “not c ytotoxic”. The IC50 (SARS-CoV-2 PLpro [2]; IC50 towards PLpro proteolytic activity) was 95.3 µM and 43.4 µM, the “inhibition of PLpro proteolytic activity” value (SARS-CoV-2 PLpro [2]; concentration not given) was 70% and the inhibition at 200 µM (SARS-CoV-2 PLpro [2]) was greater than 50%.

With `O=c1c(O)c(-c2cc(O)c(O)c(O)c2)oc2cc(O)cc(O)c12` [myricetin, 3,5,7, 3′, 4′, 5′-hexahydroxyflavone] the cytotoxicity (Vero-E6 cells) was 20-30%.

In the case of `CC1(C)OC(=O)C=C[C@]2(C)[C@H]3CC[C@@]4(C)[C@H](c5ccoc5)OC(=O)[C@H]5O[C@]54[C@]3(C)C(=O)C[C@@H]12` [obacunone], the “inhibitory activity towards PLpro proteolytic activity (in words)” value (SARS-CoV-2 PLpro [2]) is reported as “did not show inhibitory activity”.

With `C/C=C1/[C@H](O[C@@H]2O[C@H](CO)[C@@H](O)[C@H](O)[C@H]2O)OC=C(C(=O)OC)[C@H]1CC(=O)OCCc1ccc(O)c(O)c1` [oleuropein] the IC50 (SARS-CoV-2 PLpro [1]) was 132 µM, the inhibition at 200 µM (SARS-CoV-2 PLpro [1]; [4]) was 50% and the cytotoxicity (Vero-E6 cells) was 20-30%. The “IC50, PLpro proteolytic activity (Figure 5)” value (SARS-CoV-2 PLpro [2]) was “Ambiguous”, the “IC50 towards PLpro proteolytic activity” value (SARS-CoV-2 PLpro [2]) was “ambiguous” and the inhibition at 200 µM (SARS-CoV-2 PLpro [2]) was 60%.

`O=C(/C=C/c1ccc(O)c(O)c1)O[C@H](Cc1ccc(O)c(O)c1)C(=O)O` [rosmarinic acid] gave an inhibition at 200 µM (SARS-CoV-2 PLpro [2]) of 50%.

For `C[C@@H]1O[C@@H](OC[C@H]2O[C@@H](Oc3c(-c4ccc(O)c(O)c4)oc4cc(O)cc(O)c4c3=O)[C@H](O)[C@@H](O)[C@@H]2O)[C@H](O)[C@H](O)[C@H]1O` [rutin], the “cytotoxicity (in words)” value (Vero-E6 cells) was “not c ytotoxic”, the inhibition at 50 µM (SARS-CoV-2 PLpro [2]) was 70% and the inhibition at 100 µM (SARS-CoV-2 PLpro [2]) was 70%. For the same molecule, the inhibition at 200 µM (SARS-CoV-2 PLpro [2]) was 88%.

With `O=C1C=CC[C@@H]2[C@H]3CCCN4CCC[C@@H](CN12)[C@@H]34` [sophocarpine] the “inhibitory activity towards PLpro proteolytic activity (in words)” value (SARS-CoV-2 PLpro [2]) was “only colchicine out of all the tested alkaloids”.

In the case of `COc1ccc2cc1Oc1ccc(cc1)C[C@H]1c3cc(c(OC)cc3CCN1C)Oc1c(OC)c(OC)cc3c1[C@H](C2)N(C)CC3` [tetrandrine], the “inhibitory activity towards PLpro proteolytic activity (in words)” value (SARS-CoV-2 PLpro [2]) is reported as “only colchicine out of all the tested alkaloids”.

`O=c1c(O)cc([C@H]2Oc3cc(O)cc(O)c3C[C@H]2O)cc2c([C@H]3Oc4cc(O)cc(O)c4C[C@H]3O)cc(O)c(O)c12` [theaflavin] was tested, and the “inhibition of PLpro DUB activity” value (SARS-CoV-2 PLpro [1]; 50 μM, vs DMSO control) was “complete inhibition”, the IC50 (SARS-CoV-2 PLpro [1]; dose-dependent study, 0–100 µM, non-linear regression, read-out: IC50 for PLpro DUB activity) was 13.2 µM and the IC50 (SARS-CoV-2 PLpro [1]; dose-dependent study, read-out: IC50, PLpro DUB activity (Figure 6)) was 13.2 µM. For the same molecule, the inhibition at 50 µM (SARS-CoV-2 PLpro [2]; 50 μM, vs DMSO control) was 94%, the inhibition at 200 µM (SARS-CoV-2 PLpro [2]; 200 μM, vs DMSO control) was 100% and the “inhibition activity in SARS-CoV-2 PLpro enzymatic activity” value (SARS-CoV-2 PLpro [2]) was “more than 50%”. It also gave an IC50 (SARS-CoV-2 PLpro [2]; [3]) of 7.3 µM.

In the case of `COc1cc2oc3cc(O)c(OC)c(CC=C(C)C)c3c(=O)c2c(O)c1CC=C(C)C` [β-mangostin, b-Mangostin], the “inhibitory activity towards PLpro proteolytic activity (in words)” value (SARS-CoV-2 PLpro [2]) is reported as “Only γ-mangostin and mangiferin exhibited more than 50% inhibitory activity”.

For `CC(C)=CCc1c(O)cc2oc3cc(O)c(O)c(CC=C(C)C)c3c(=O)c2c1O` [γ-mangostin], the “IC50, PLpro proteolytic activity (Figure 5)” value (SARS-CoV-2 PLpro [2]) was “Ambiguous” and the “IC50 towards PLpro proteolytic activity” value (SARS-CoV-2 PLpro [2]) was “ambiguous”.

In the case of evodiamine, the “inhibitory activity towards PLpro proteolytic activity (in words)” value (SARS-CoV-2 PLpro [2]) is reported as “only colchicine out of all the tested alkaloids”.
